Laboratory results as given in US20250009614A1 (priority 2021, published 2025).

Tests used:
A549 cells = experiment: In-vitro cytotoxicity, MTT assay; details: 24 hours
human skin = experiment: Skin irritancy patch test; assay type: in vivo; details: occluded patch, neat
Protocol: The objective of the study was to determine skin irritancy potential of the nanoemulsion hand sanitizer products of the invention. The study was conducted according to internationally recognized Good Clinical Practice Guidelines. Permission to conduct the study was covered under the protocol approval for project MREC/H/48/2014: CR of the Research, Ethics and Publications Committee of the Sefako Makgatho Health Sciences University. Recruitment for the study began two weeks before the commencement of the study and approximately 25 panellists were recruited according to the study requirements, to commence the study with a test panel of 20. Potential panellists attended a series of study briefings held during the week prior to the study. Panellists were verbally briefed and given the Study Instructions, Informed Consent forms (plus coloured duplicate copies of the latter).
Panellists were given specifically timed appointments for the whole study. Unless otherwise stated in the summary, twenty adult female volunteers were used, of whom five had sensitive skins (as determined from the subject enrolment questionnaire). Signed consent forms were obtained from all subjects. Subjects with a history of clinical dermal abnormalities or who are taking or using medication which may affect test results through mediation of the inflammatory response were excluded. […]
Briefly, the study procedure was as follows; Controls and products were applied to the inner forearm of each volunteer in a randomized, blinded pattern at zero hours and repeated on the same position at 24 hours. A measured volume of control or pieces of product was placed in the respective chamber and the chamber attached to the forearm. […]
The protocol uses 1% sodium lauryl sulphate (SLS) solution as a positive control and de-ionized water as a negative control. A measured amount of 0.02 ml of sodium lauryl sulphate and de-ionized water was applied. […]
The maximum irritancy (as calculated by the mean visual score+one standard deviation of the visual score) for the products and the controls is tabulated below. […]

HIV-1 pseudovirus = details: infection of 100 TCID50; cited from earlier work

Molecule | cytotoxicity (in words) (A549 cells) | Maximum value (mean visual score + sd) (human skin; 0-3 scale, 20 panellists) | Conclusion (irritancy category) (human skin) | Time point (hours) of maximum value (human skin) [h] | reported IC50 (as mass) (HIV-1 pseudovirus) [µg]
C=C(C)[C@@H]1CCC(C)=C[C@H]1c1c(O)cc(CCCCC)cc1O [CBD, cannabidiol] | significant toxicity |  |  |  | 
CCCCCCCCCCCCOS(=O)(=O)[O-].[Na+] [H, Sodium Lauryl Sulphate] |  | 2.18 | Irritant (product mean visual score+SD >1.5—Product is irritant) | 72 | 
cyanovirin-N (protein, UniProt P81180 1-101, looked up) Cyanovirin-N: LGKFSQTCYNSAIQGSVLTSTCERTNGGYNTSSIDLNSVIENVDGSLKWQPSNFIETCRNTQLAGSSELAAECKTRAQQFVSTKINLDDHIANIDGTLKYE | significant toxicity |  |  |  | 22 to 340
